# Experiments:
# [1] = ABTS scavenging activity; assay type: biochemical
# Method: For the determination of the antioxidant activity of the synthesized compounds, the previously reported method for ABTS scavenging activity was used with slight modification. The stock solution of 2.4 mM of potassium per sulfate solution and 7 mM ABTS solution was prepared by mixing them in equal volumes for 16 h. The stock solution thus prepared was diluted using methyl alcohol to give absorption of 0.7 ± 0.02 units when studied at the wavelength of 734 nm using a spectrophotometer. Fresh ABTS solution was prepared for each ABTS scavenging assay. About 150 μL of the ABTS working solution was added to 50 μL of synthesized compounds and kept in darkness for 10 min. […] Methanol was used as blank, and standard ascorbic acid was run at the same time. The absorbance was calculated utilizing a microplate reader at 734 nm.
# [2] = system: mice; assay: oral glucose tolerance test (OGTT); assay type: in vivo; conditions: glucose 2 g/kg orally
# Method: To perform OGTT mice fasted overnight were used including both control and treated mice. Glucose was administered orally at the dose of 2 g/kg against glibenclamide as standard drug. After administration of glucose, blood glucose level was calculated at time intervals of 0, 30, 60, and 120 min for assessment of the impact of exogenously given D-glucose on treated mice. OGTT was carried out 5 days before the completion of the study.
# To perform OGTT, mice fasted overnight were used including both control and treated mice. Glucose was administered orally at the dose of 2 g/kg against glibenclamide as a standard drug. After administration of glucose, blood glucose level was calculated at time intervals of 0, 30, 60, and 120 min for assessment of the impact of exogenously given D-glucose on treated mice.
# [3] = target: α-glucosidase; assay: in vitro α-glucosidase inhibition; assay type: biochemical
# Method: For in vitro α-glucosidase activity, samples were prepared by adding glucopyranoside to phosphate buffer solvent, and different concentrations of the synthesized compounds (31.25, 62.5, 125, 250, and 500 µg/ml), respectively, were added to this solution and then the enzyme glucosidase in distilled water (0.5 µg/ml) was also added to the above mixture. The reaction mixture thus prepared was subjected to incubation at 37°C for 20 minutes. The reaction was halted by adding HCl after incubation of the mixture. The intensity of the color was determined at 540 nm by spectrophotometer, and the formula given below was used for the determination of percent inhibition:(2) percent inhibition=absorbancecontrol−absorbancesample/absorbancecontrol×100.
# [4] = target: α-amylase; assay: in vitro α-amylase inhibition; assay type: biochemical
# Method: The starch solution was added, following incubation of the mixture, and the reaction mixture thus prepared was kept in water bath at 100°C for some time. Microplate reader measured the intensity of the color at 656 nm. Following formula was used to determine percentage inhibition:(3) percent inhibition=absorbancecontrol−absorbancesample/absorbancecontrol×100.
# [5] = DPPH scavenging activity; assay type: biochemical
# Method: The antioxidant assay of the synthesized compounds was conducted following the previously reported method. A freshly prepared DPPH solution (50 μL of 1.0 × 10^−3 M) was added in methyl alcohol. Methanol was used as a control in this experiment. The prepared mixture was subjected to incubation at 25°C for 30 min. A decrease in the DPPH free radical concentration was calculated using a spectrophotometer at a wavelength of 517 nm. After incubation ascorbic acid was used as a positive control. The antioxidant activity was determined as a percent (%) of inhibition using the formula given:(1) percent inhibition=absorbancecontrol−absorbancesample/absorbancecontrol×100.
# [6] = system: diabetic mice (by alloxan); assay: antidiabetic activity in diabetic mice (by alloxan); assay type: in vivo
# Method: Alloxan was used for the induction of diabetes mellitus according to reported procedure. Recently prepared Alloxan (ALX) was injected intraperitoneally to animals, fasting for 16 h, at a single dose of (150 mg/kg). […] Only diabetic animals, having random blood glucose level more than 200 mg/dl, were selected for studies. All the experimental procedure were approved from the ethical committee department of pharmacy, University of Swabi via letter No; UOS-06/2021.
# A total of 30 animals were used to determine the hypoglycemic effect of the synthesized derivatives of succinimide. The experimental animals were segregated in six groups […], having five (5) animals in each group. Group I was designated as normal group and was given normal saline I/P only. Group II was given Tween 80, and Group III was given standard drug (glibenclamide) after the induction of diabetes. Group IV, Group V, and Group VI were given the various doses of synthesized compounds, respectively. […]
structure (smiles),measurement,setting,value
"O=C1CCCCC1C1CC(=O)N(Cc2ccccc2)C1=O (stereo not drawn) [BW2, Benzyl-3-(2-Oxocyclohexyl) Pyrrolidine-2,5-Dione]",IC50 (ABTS),[1],12.87 µg/mL
same,(%) ABTS inhibitions,[1]; 31.25 µg/ml,57.40 ± 0.76^∗∗∗ %
same,(%) ABTS inhibitions,[1]; 62.50 µg/ml,61.35 ± 0.51^∗∗∗ %
same,(%) ABTS inhibitions,[1]; 125 µg/ml,66.90 ± 0.96^∗∗∗ %
same,(%) ABTS inhibitions,[1]; 250 µg/ml,71.08 ± 0.47^∗∗∗ %
same,(%) ABTS inhibitions,[1]; 500 µg/ml,76.85 ± 2.24^∗∗∗ %
same,"OGTT blood glucose, 0 minutes",[2]; 0 minutes,163.7 mg/dL
same,"OGTT blood glucose, 30 minutes",[2]; 30 minutes,189.2 mg/dL
same,"OGTT blood glucose, 60 minutes",[2]; 60 minutes,214.8 mg/dL
same,"OGTT blood glucose, 120 minutes",[2]; 120 minutes,151.4 mg/dL
same,IC50 (α-glucosidase),[3],10.81 µg/mL
same,% inhibitions (α-glucosidase),[3]; 31.25 µg/ml,62.44 ± 0.55^∗∗ %
same,% inhibitions (α-glucosidase),[3]; 62.50 µg/ml,68.47 ± 0.52^∗∗∗ %
same,% inhibitions (α-glucosidase),[3]; 125 µg/ml,74.39 ± 0.49^∗∗∗ %
same,% inhibitions (α-glucosidase),[3]; 250 µg/ml,81.34 ± 0.55^∗ %
same,% inhibitions (α-glucosidase),[3]; 500 µg/ml,87.36 ± 0.49^∗ %
same,IC50 (α-amylase),[4],15.34 µg/mL
same,% inhibitions (α-amylase),[4]; 31.25 µg/ml,55.85 ± 0.17^∗∗∗ %
same,% inhibitions (α-amylase),[4]; 62.50 µg/ml,63.72 ± 0.11^∗∗∗ %
same,% inhibitions (α-amylase),[4]; 125 µg/ml,67.44 ± 0.15^∗∗∗ %
same,% inhibitions (α-amylase),[4]; 250 µg/ml,73.14 ± 0.49^∗∗∗ %
same,% inhibitions (α-amylase),[4]; 500 µg/ml,78.69 ± 0.14^∗∗∗ %
same,IC50 (DPPH),[5],12.81 µg/mL
same,(%) DPPH inhibitions,[5]; 31.25 µg/ml,56.65 ± 1.34^∗∗∗ %
same,(%) DPPH inhibitions,[5]; 62.50 µg/ml,61.58 ± 1.12^∗∗∗ %
same,(%) DPPH inhibitions,[5]; 125 µg/ml,66.40 ± 0.25^∗∗∗ %
same,(%) DPPH inhibitions,[5]; 250 µg/ml,71.67 ± 1.20^∗∗∗ %
same,(%) DPPH inhibitions,[5]; 500 µg/ml,75.09 ± 0.32^∗∗∗ %
same,Change in body weight,[6]; dose 31.25 μg/kg,−6.8 Gm
same,Decrease in blood glucose after 15 days,[6]; dose 31.25 μg/kg,35 mg/dL
same,"Blood glucose level, 0 day",[6]; dose 31.25 μg/kg,452 mg/dL
same,"Blood glucose level, 4th day",[6]; dose 31.25 μg/kg,448 mg/dL
same,"Blood glucose level, 7th day",[6]; dose 31.25 μg/kg,431 mg/dL
same,"Blood glucose level, 10th day",[6]; dose 31.25 μg/kg,425 mg/dL
same,"Blood glucose level, 15th day",[6]; dose 31.25 μg/kg,417 mg/dL
same,Change in body weight,[6]; dose 62.5 μg/kg,−4.6 Gm
same,Decrease in blood glucose after 15 days,[6]; dose 62.5 μg/kg,58 mg/dL
same,"Blood glucose level, 0 day",[6]; dose 62.5 μg/kg,386 mg/dL
same,"Blood glucose level, 4th day",[6]; dose 62.5 μg/kg,359 mg/dL
same,"Blood glucose level, 7th day",[6]; dose 62.5 μg/kg,349 mg/dL
same,"Blood glucose level, 10th day",[6]; dose 62.5 μg/kg,336 mg/dL
same,"Blood glucose level, 15th day",[6]; dose 62.5 μg/kg,328 mg/dL
same,Change in body weight,[6]; dose 125 μg/kg,−3.7 Gm
same,Decrease in blood glucose after 15 days,[6]; dose 125 μg/kg,68 mg/dL
same,"Blood glucose level, 0 day",[6]; dose 125 μg/kg,437 mg/dL
same,"Blood glucose level, 4th day",[6]; dose 125 μg/kg,431 mg/dL
same,"Blood glucose level, 7th day",[6]; dose 125 μg/kg,422 mg/dL
same,"Blood glucose level, 10th day",[6]; dose 125 μg/kg,394 mg/dL
same,"Blood glucose level, 15th day",[6]; dose 125 μg/kg,369 mg/dL
same,Change in body weight,[6]; dose 250 μg/kg,+3.4 Gm
same,Decrease in blood glucose after 15 days,[6]; dose 250 μg/kg,111 mg/dL
same,"Blood glucose level, 0 day",[6]; dose 250 μg/kg,466 mg/dL
same,"Blood glucose level, 4th day",[6]; dose 250 μg/kg,461 mg/dL
same,"Blood glucose level, 7th day",[6]; dose 250 μg/kg,443 mg/dL
same,"Blood glucose level, 10th day",[6]; dose 250 μg/kg,407 mg/dL
same,"Blood glucose level, 15th day",[6]; dose 250 μg/kg,355 mg/dL
same,Change in body weight,[6]; dose 500 μg/kg,+7.4 Gm
same,Decrease in blood glucose after 15 days,[6]; dose 500 μg/kg,199 mg/dL
same,"Blood glucose level, 0 day",[6]; dose 500 μg/kg,456 mg/dL
same,"Blood glucose level, 4th day",[6]; dose 500 μg/kg,402 mg/dL
same,"Blood glucose level, 7th day",[6]; dose 500 μg/kg,361 mg/dL
same,"Blood glucose level, 10th day",[6]; dose 500 μg/kg,303 mg/dL
same,"Blood glucose level, 15th day",[6]; dose 500 μg/kg,257 mg/dL

# — publication PMC8979682, “Synthesis, Antioxidant, and Antidiabetic Activities of Ketone Derivatives of Succinimide” (Evidence-based Complementary and Alternative Medicine : eCAM, 2022)
